Here are results for 54 compounds from patent publication US7566718B2, “Amine-linked pyridyl and phenyl substituted piperazine-piperidines with CXCR3 antagonist activity” (Schering Corporation, priority 2005, dated 2009).

Some results are limits rather than exact numbers.

This assay addresses T1, human CXCR3 (N-delta 4) (Homo sapiens, UniProt P49682).
T1 construct: CD8 leader (N); Flag tag; expressed in transfected cells; membrane preparation
T1 sequence (P49682 5-368 limits assumed): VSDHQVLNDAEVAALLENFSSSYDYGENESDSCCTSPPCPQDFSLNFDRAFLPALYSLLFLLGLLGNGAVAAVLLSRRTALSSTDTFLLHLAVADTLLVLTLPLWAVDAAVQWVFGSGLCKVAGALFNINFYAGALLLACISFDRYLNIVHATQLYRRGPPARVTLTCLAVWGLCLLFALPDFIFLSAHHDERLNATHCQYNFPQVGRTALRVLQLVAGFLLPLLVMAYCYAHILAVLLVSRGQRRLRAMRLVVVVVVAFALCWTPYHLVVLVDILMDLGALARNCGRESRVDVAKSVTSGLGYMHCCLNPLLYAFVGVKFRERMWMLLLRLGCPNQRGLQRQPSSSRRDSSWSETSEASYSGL
Nature of the assay: Human CXCR3 (N-delta 4) scintillation proximity assay (SPA), [125I] IP-10 binding to Ba/F3-hCXCR3 membranes. The settings on record: IC50 rating; [125I] IP-10 displacement, human CXCR3; read-out: IC50. The procedure, abridged:
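Membranes from Ba/F3 cells expressing Flag-tagged hCXCR3 (N-delta 4), 2 μg/point, precoupled to WGA SPA beads. Binding of 25 pM [125I] IP-10 measured with titrated compounds, 3 hr at room temperature, in HEPES buffer with CaCl2, MgCl2, NaCl and 1.0% BSA; bound tracer read by scintillation counting.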
(In general: SPA uses beads or plates that emit light when radiolabelled molecules are held near them.)

`C[C@@H]1CN(c2ncc(Nc3c(NCC(F)(F)F)c(=O)c3=O)cc2Cl)[C@@H](C)CN1C1CCN(Cc2ccccc2O)CC1` [Compound 153]: the IC50 (in general, the concentration at which inhibition is half-maximal) was over 100 nM.

On to `CC[C@H]1CN(c2ncc(NS(C)(=O)=O)cc2Cl)CCN1C1CCN(Cc2ccc(Cl)cc2[N+](=O)[O-])CC1` [Compound 28], for which the IC50 is 25 to 100 nM.

As for `CC[C@H]1CN(c2ncc(NCCCC(F)(F)F)cc2Cl)CCN1C1CCN(Cc2ccc(Cl)cc2)CC1` [Compound 204], the IC50 was 25 to 100 nM.

For `C[C@@H]1CN(c2ncc(Nc3c(NCC(F)(F)F)c(=O)c3=O)cc2Cl)[C@@H](C)CN1C1CCN(CCCC2CCCCC2)CC1` [Compound 118], the IC50 was over 100 nM.

In the case of `Cc1cc(Nc2c(NCC(F)(F)F)c(=O)c2=O)cnc1N1C[C@@H](C)N(C2CCN(C(=O)C3CCc4ccccc4C3)CC2)C[C@@H]1C` (stereo partly drawn) [Compound 130], the IC50 was over 100 nM.

With `C[C@@H]1CN(c2ncc(Nc3c(NCC(F)(F)F)c(=O)c3=O)cc2Cl)[C@@H](C)CN1C1CCN(Cc2ccccc2OCC(=O)O)CC1` [Compound 137], the IC50 was over 100 nM.

`C[C@H]1CN(c2nc(Cl)c(N)cc2Cl)CCN1C1CCN(Cc2ccc(Cl)cc2F)CC1` [Compound 228]: the IC50 was over 100 nM.

Regarding `CC[C@H]1CN(c2ncc(NC3=NS(=O)(=O)N=C3NC3CC3)cc2Cl)CCN1C1CCN(Cc2ccc(Cl)cc2F)CC1` [Compound 235], the IC50 was under 25 nM.

Turning to `CC[C@H]1CN(c2ncc(NC3=NS(=O)(=O)N=C3NCCO)cc2Cl)CCN1C1CCN(Cc2ccc(OC(F)(F)F)cc2)CC1` [Compound 239], the half-inhibitory concentration (IC50) was under 25 nM.

Regarding `CC(C)CCN1CCC(N2C[C@H](C)N(c3ncc(Nc4c(NCC(F)(F)F)c(=O)c4=O)cc3Cl)C[C@H]2C)CC1` [Compound 113], the IC50 was over 100 nM.

Consider `CC[C@H]1CN(c2ncc(NS(C)(=O)=O)cc2Cl)CCN1C1CCN(C(=O)c2ccc(OC(F)(F)F)cc2)CC1` [Compound 68], for which the IC50 was over 100 nM.

`CCC(=O)Nc1cnc(N2CCN(C3CCN(Cc4ccc(Cl)cc4)CC3)[C@@H](C)C2)c(Cl)c1` [Compound 187]: the IC50 is 25 to 100 nM.

`C[C@@H]1CN(c2ncc(Nc3c(NCC(F)(F)F)c(=O)c3=O)cc2Cl)[C@@H](C)CN1C1CCN(CCCc2ccccc2)CC1` [Compound 116]: the 50% inhibitory concentration (IC50) was over 100 nM.

For the compound `CC[C@H]1CN(c2ncc(NC3=NS(=O)(=O)N=C3NC3CC3)cc2Cl)CCN1C1CCN(Cc2ccc(C#N)nc2)CC1` [Compound 266], the IC50 is over 100 nM.

`CCC(C)CN1CCC(N2C[C@H](C)N(c3ncc(Nc4c(NCC(F)(F)F)c(=O)c4=O)cc3Cl)C[C@H]2C)CC1` (stereo partly drawn) [Compound 170]: the IC50 was over 100 nM.

Turning to `CC[C@H]1CN(c2ncc(-n3ccnc3)cc2Cl)CCN1C1CCN([C@H](C(=O)OC)c2ccc(Cl)cc2)CC1` [Compound 229], the IC50 was over 100 nM.

Consider `CC[C@H]1CN(c2ncc(Nc3c(NC4CC4)c(=O)c3=O)cc2Cl)CCN1C1CCN(Cc2ccc(Cl)cc2C(N)=O)CC1` [Compound 81], for which the IC50 was under 25 nM.

For the compound `CC[C@H]1CN(c2ncc(NS(N)(=O)=O)cc2Cl)CCN1C1CCN(C(=O)c2ccc(Cl)cc2)CC1` [Compound 33], the IC50 lay within 25 to 100 nM.

As to `CC[C@H]1CN(c2ncc(NS(=O)(=O)C(C)C)cc2Cl)CCN1C1CCN(Cc2ccc(Cl)cc2F)CC1` [Compound 29], the concentration for half-maximal inhibition (IC50) fell in the range of 25 to 100 nM.

Take `CC[C@H]1CN(c2ncc(NC3=NS(=O)(=O)N=C3NC3CC3)cc2Cl)CCN1C1CCN(Cc2ccc(Cl)cc2C(=N)NO)CC1` [Compound 236]: the IC50 was under 25 nM.

For `C[C@@H]1CN(c2ncc(Nc3c(NCC(F)(F)F)c(=O)c3=O)cc2Cl)[C@@H](C)CN1C1CCN(Cc2ccc(Cl)cc2Cl)CC1` [Compound 134], the 50% inhibitory concentration (IC50) was over 100 nM.

With `CC[C@H]1CN(c2c(F)cc(Nc3c(NC4CC4)c(=O)c3=O)cc2Cl)CCN1C1CCN(Cc2ccc(Cl)cc2F)CC1` [Compound 105], the IC50 was 25 to 100 nM.

With `CCNC(=O)Nc1cnc(N2CCN(C3CCN(Cc4ccc(Cl)cc4)CC3)[C@@H](C)C2)c(Cl)c1` [Compound 190], the 50% inhibitory concentration (IC50) was 25 to 100 nM.

For `COC(=O)c1ccc(CN2CCC(N3C[C@H](C)N(c4ncc(Nc5c(NCC(F)(F)F)c(=O)c5=O)cc4Cl)C[C@H]3C)CC2)cc1` [Compound 123], the IC50 was over 100 nM.

As for `C[C@@H]1CN(c2ncc(Nc3c(NCC(F)(F)F)c(=O)c3=O)cc2Cl)[C@@H](C)CN1C1CCN(Cc2ccccc2Cl)CC1` [Compound 155], the IC50 is over 100 nM.

With `CC[C@H]1CN(c2ncc(NC3=NS(=O)(=O)N=C3NCC(C)(C)C)cc2Cl)CCN1C1CCN(Cc2ccc(Cl)cc2C#N)CC1` [Compound 278], the IC50 is over 100 nM.

Turning to `CC[C@H]1CN(c2ncc(NS(C)(=O)=O)cc2Cl)CCN1C1CCN(C(=O)c2ccc(Cl)cc2O)CC1` [Compound 62], the IC50 was over 100 nM.

For the compound `CC[C@H]1CN(c2ncc(NC(=O)C3CCCCC3)cc2Cl)CCN1C1CCN(Cc2ccc(Cl)cc2F)CC1` [Compound 195], the IC50 is over 100 nM.

Regarding `CC[C@H]1CN(c2ncc(Nc3c(NCCO)c(=O)c3=O)cc2Cl)CCN1C1CCN(Cc2ccc(Cl)cc2C(N)=O)CC1` [Compound 72], the IC50 was under 25 nM.

Consider `C[C@@H]1CN(c2ncc(Nc3c(NCC(F)(F)F)c(=O)c3=O)cc2Cl)[C@@H](C)CN1C1CCN(Cc2cc(Cl)cc(Cl)c2)CC1` [Compound 159], for which the IC50 was over 100 nM.

For `CC[C@H]1CN(c2ncc(Nc3c(NC4CCC4)c(=O)c3=O)cc2Cl)CCN1C1CCN(Cc2ccc(Cl)cc2F)CC1` [Compound 87], the IC50 is under 25 nM.

Turning to `CC1CCCC(N2CCC(N3C[C@H](C)N(c4ncc(Nc5c(NCC(F)(F)F)c(=O)c5=O)cc4Cl)C[C@H]3C)CC2)C1` (stereo partly drawn) [Compound 163], the concentration for half-maximal inhibition (IC50) is over 100 nM.

Regarding `C[C@@H]1CN(c2ncc(Nc3c(NCC(F)(F)F)c(=O)c3=O)cc2Cl)[C@@H](C)CN1C1CCN(Cc2cccc3c2OCO3)CC1` [Compound 119], the 50% inhibitory concentration (IC50) is over 100 nM.

On to `CC[C@H]1CN(c2ncc(NS(C)(=O)=O)cc2Cl)CCN1C1CCN(Cc2ccc(Br)cc2)CC1` [Compound 5], for which the IC50 is under 25 nM.

In the case of `CC[C@H]1CN(c2ncc(Nc3c(NC4CCC4)c(=O)c3=O)cc2Cl)CCN1C1CCN(Cc2ccc(OC(F)(F)F)cc2)CC1` [Compound 83], the IC50 is under 25 nM.

Turning to `CC[C@H]1CN(c2nc(N)c(N)nc2Cl)CCN1C1CCN(Cc2ccc(Cl)cc2F)CC1` [Compound 219], the IC50 was over 100 nM.

Regarding `CC[C@H]1CN(c2ncc(Nc3ncccn3)cc2Cl)CCN1C1CCN(Cc2ccc(Cl)cc2F)CC1` [Compound 211], the IC50 was 25 to 100 nM.

As for `CC[C@H]1CN(c2ncc(NC3=NS(=O)(=O)N=C3N(C)C)cc2Cl)CCN1C1CCN(Cc2ccc(Cl)cc2C(=N)NO)CC1` [Compound 256], the IC50 lay in the range of 25 to 100 nM.

For `CC[C@H]1CN(c2ncc(NC3=NS(=O)(=O)N=C3NCCN)cc2Cl)CCN1C1CCN(Cc2ccc(Cl)cc2F)CC1` [Compound 279], the concentration for half-maximal inhibition (IC50) was over 100 nM.

For `CC[C@H]1CN(c2ncc(NC3=NS(=O)(=O)N=C3NC)cc2Cl)CCN1C1CCN(Cc2ccc(Cl)cc2C#N)CC1` [Compound 263], the IC50 fell in the range of 25 to 100 nM.

For `CC[C@H]1CN(c2ncc(NS(C)(=O)=O)cc2Cl)CCN1C1CCN([C@@H](C(N)=O)c2ccc(Cl)cc2)CC1` [Compound 59], the IC50 was over 100 nM.

Take `C[C@@H]1CN(c2ncc(Nc3c(NCC(F)(F)F)c(=O)c3=O)cc2Cl)[C@@H](C)CN1C1CCN(C2CCCC(C(F)(F)F)C2)CC1` (stereo partly drawn) [Compound 145]: the IC50 is over 100 nM.

On to `C[C@@H]1CN(c2ncc(Nc3c(NCC(F)(F)F)c(=O)c3=O)cc2Cl)[C@@H](C)CN1C1CCN(C2CCC(c3ccccc3)CC2)CC1` (stereo partly drawn) [Compound 173], for which the IC50 is over 100 nM.

On to `C[C@@H]1CN(c2ncc(Nc3c(NCC(F)(F)F)c(=O)c3=O)cc2Cl)[C@@H](C)CN1C1CCN(Cc2cccc(C(F)(F)F)c2)CC1` [Compound 157], for which the half-inhibitory concentration (IC50) was over 100 nM.

For the compound `CC[C@H]1CN(c2ncc(Nc3c(N[C@@H](c4ccc(C)o4)C(C)(C)C)c(=O)c3=O)cc2Cl)CCN1C1CCN([C@H](CO)c2ccc(Cl)cc2)CC1` [Compound 109], the IC50 is 25 to 100 nM.

Turning to `CC[C@H]1CN(c2ncc(NS(C)(=O)=O)cc2Cl)CCN1C1CCN(C(C(=O)OC)c2ccc(Cl)cc2)CC1` (stereo partly drawn) [Compound 27], the IC50 lay within 25 to 100 nM.

Turning to `CC[C@H]1CN(c2ncc(-n3cccc3)cc2Cl)CCN1C1CCN(Cc2ccc(Cl)cc2F)CC1` [Compound 222], the IC50 was over 100 nM.

In the case of `CC[C@H]1CN(c2ncc(NC3=NS(=O)(=O)N=C3NC(C)(C)C)cc2Cl)CCN1C1CCN(Cc2ccc(Cl)cc2C#N)CC1` [Compound 267], the IC50 was over 100 nM.

For `CC[C@H]1CN(c2ncc(NS(C)(=O)=O)cc2Cl)CCN1C1CCN(Cc2ccc(C)cc2)CC1` [Compound 19], the IC50 was under 25 nM.

As for `CC[C@H]1CN(c2ncc(NC3=NS(=O)(=O)N=C3NC(C)(C)C)cc2Cl)CCN1C1CCN(Cc2ccc(Cl)cc2F)CC1` [Compound 255], the IC50 lay in the range of 25 to 100 nM.

With `CC[C@H]1CN(c2ncc(NS(C)(=O)=O)cc2Cl)CCN1C1CCN(Cc2ccc(OC)cc2OC)CC1` [Compound 18], the IC50 was under 25 nM.

On to `CC[C@H]1CN(c2ncc(NS(C)(=O)=O)cc2Cl)CCN1C1CCN(C(=O)c2ccc(Cl)c(Cl)c2)CC1` [Compound 63], for which the IC50 was over 100 nM.

Take `CC[C@H]1CN(c2ncc(NS(C)(=O)=O)cc2Cl)CCN1C1CCN(C(=O)c2ccc(Br)s2)CC1` [Compound 69]: the concentration for half-maximal inhibition (IC50) is over 100 nM.

For `CC[C@H]1CN(c2ncc(Nc3c(C(C)C)c(=O)c3=O)cc2Cl)CCN1C1CCN(Cc2ccc(C#N)cc2)CC1` [Compound 88], the half-inhibitory concentration (IC50) was under 25 nM.
